Results from patent US10167262B2, “Herbicidal substituted 3-arylpyrazoles” (FMC CORPORATION, priority 2014, dated 2019).

Assays:
Assay in all cases: Test E pre-/postemergence greenhouse test, plant response rating 0-100
Assay type in all cases: in vivo
[1] = system: Brazilian crabgrass (Digitaria horizontalis); settings: Postemergence, scale 0 to 100
Excerpt: (§1) Seeds of plant species selected from corn (Zea mays), soybean (Glycine max), velvetleaf (Abutilon theophrasti), lambsquarters (Chenopodium album), wild poinsettia (Euphorbia heterophylla), palmer pigweed (Amaranthus palmeri), waterhemp (common waterhemp, Amaranthus rudis), surinam grass (Brachiaria decumbens), large (Lg) crabgrass (Digitaria sanguinalis), Brazilian crabgrass (Digitaria horizontalis), fall panicum (Panicum dichotomiflorum), giant foxtail (Setaria faberii), green foxtail (Setaria viridis), goosegrass (Eleusine indica), johnsongrass (Sorghum halepense), ragweed (common ragweed, Ambrosia elatior), barnyardgrass (Echinochloa crus-galli), sandbur (southern sandbur, Cenchrus echinatus), arrowleaf sida (Sida rhombifolia), Italian ryegrass (Lolium multiflorum), dayflower (Virginia (VA) dayflower, Commelina virginica), field bindweed (Convolvulus arvensis), morningglory (Ipomoea coccinea), nightshade (eastern black nightshade, Solanum ptycanthum), kochia (Kochia scoparia), yellow nutsedge (Cyperus esculentus), smartweed (ladysthumb smartweed, Polygonum persicaria), cocklebur (common cocklebur, Xanthium strumarium), and hairy beggarticks (Bidens pilosa), were planted into a silt loam soil and treated preemergence with test chemicals formulated in a non-phytotoxic solvent mixture which included a surfactant.
(§2) At the same time, plants from these crop and weed species and also waterhemp_RES1, (ALS & Triazine resistant common waterhemp, Amaranthus rudis), and waterhemp_RES2, (ALS & HPPD resistant common waterhemp, Amaranthus rudis) were planted in pots containing Redi-Earth® planting medium (Scotts Company, 14111 Scottslawn Road, Marysville, Ohio 43041) comprising spaghnum peat moss, vermiculite, wetting agent and starter nutrients were treated with postemergence applications of test chemicals formulated in the same manner. Plants ranged in height from 2 to 18 cm for postemergence treatments (1- to 4-leaf stage).
(§3) Treated plants and controls were maintained in a greenhouse for 14 to 21 days, after which time all species were compared to controls and visually evaluated. Plant response ratings, summarized in Table E, are based on a scale of 0 to 100 where 0 is no effect and 100 is complete control. A dash (-) response means no test result.

[2] = system: dayflower (Virginia (VA) dayflower, Commelina virginica); settings: scale 0 to 100; for Plant response rating, Dayflower, VA: Postemergence; for Dayflower, VA plant response rating: Preemergence
Excerpt: as §1, §2, §3

corn (Zea mays) = settings: scale 0 to 100; for Plant response rating, Corn: Postemergence; for Corn plant response rating: Preemergence
Excerpt: as §1, §2, §3

[3] = system: barnyardgrass (Echinochloa crus-galli); settings: scale 0 to 100; for Plant response rating, Barnyardgrass: Postemergence; for Barnyardgrass plant response rating: Preemergence
Excerpt: as §1, §2, §3

[4] = system: field bindweed (Convolvulus arvensis); settings: scale 0 to 100; for Plant response rating, Field Bindweed: Postemergence; for Field Bindweed plant response rating: Preemergence
Excerpt: as §1, §2, §3

[5] = system: sandbur (southern sandbur, Cenchrus echinatus); settings: scale 0 to 100; for Plant response rating, Sandbur: Postemergence; for Sandbur plant response rating: Preemergence
Excerpt: as §1, §2, §3

[6] = system: palmer pigweed (Amaranthus palmeri); settings: scale 0 to 100; for Plant response rating, Pigweed, Palmer: Postemergence; for Pigweed, Palmer plant response rating: Preemergence
Excerpt: as §1, §2, §3

[7] = system: fall panicum (Panicum dichotomiflorum); settings: scale 0 to 100; for Plant response rating, Panicum, Fall: Postemergence; for Panicum, Fall plant response rating: Preemergence
Excerpt: as §1, §2, §3

soybean (Glycine max) = settings: scale 0 to 100; for Plant response rating, Soybean: Postemergence; for Soybean plant response rating: Preemergence
Excerpt: as §1, §2, §3

[8] = system: waterhemp (common waterhemp, Amaranthus rudis); settings: scale 0 to 100; for Plant response rating, Waterhemp: Postemergence; for Waterhemp plant response rating: Preemergence
Excerpt: as §1, §2, §3

[9] = system: hairy beggarticks (Bidens pilosa); settings: scale 0 to 100; for Plant response rating, Beggarticks: Postemergence; for Beggarticks plant response rating: Preemergence
Excerpt: as §1, §2, §3

[10] = system: arrowleaf sida (Sida rhombifolia); settings: for Plant response rating, Arrowleaf Sida: Postemergence; for Arrowleaf Sida plant response rating: Preemergence
Excerpt: as §1, §2, §3

## O=C(c1ccccc1)c1cn(S(=O)(=O)CCl)nc1-c1cc(Cl)cc(Cl)c1 [Compound 1]
[1]; 31 g ai/ha
  Plant response rating, Crabgrass, Brazil: 0
[1]; 62 g ai/ha
  Plant response rating, Crabgrass, Brazil: 0
[1]; 125 g ai/ha
  Plant response rating, Crabgrass, Brazil: 0
[1]; 250 g ai/ha
  Plant response rating, Crabgrass, Brazil: 0
[1]; 500 g ai/ha
  Plant response rating, Crabgrass, Brazil: 0
[2]; 31 g ai/ha
  Plant response rating, Dayflower, VA: 0
  Dayflower, VA plant response rating: 0
[2]; 62 g ai/ha
  Plant response rating, Dayflower, VA: 0
[2]; 125 g ai/ha
  Plant response rating, Dayflower, VA: 0
  Dayflower, VA plant response rating: 0
[2]; 250 g ai/ha
  Plant response rating, Dayflower, VA: 0
  Dayflower, VA plant response rating: 0
[2]; 500 g ai/ha
  Plant response rating, Dayflower, VA: 0
  Dayflower, VA plant response rating: 0
Corn (Zea mays); 31 g ai/ha
  Plant response rating, Corn: 0
  Corn plant response rating: 0
Corn (Zea mays); 62 g ai/ha
  Plant response rating, Corn: 0
  Corn plant response rating: 0
Corn (Zea mays); 125 g ai/ha
  Plant response rating, Corn: 0
  Corn plant response rating: 0
Corn (Zea mays); 250 g ai/ha
  Plant response rating, Corn: 0
  Corn plant response rating: 0
Corn (Zea mays); 500 g ai/ha
  Plant response rating, Corn: 0
  Corn plant response rating: 0
[3]; 31 g ai/ha
  Plant response rating, Barnyardgrass: 0
[3]; 62 g ai/ha
  Plant response rating, Barnyardgrass: 0
  Barnyardgrass plant response rating: 0
[3]; 125 g ai/ha
  Plant response rating, Barnyardgrass: 0
  Barnyardgrass plant response rating: 0
[3]; 250 g ai/ha
  Plant response rating, Barnyardgrass: 0
  Barnyardgrass plant response rating: 0
[3]; 500 g ai/ha
  Plant response rating, Barnyardgrass: 0
  Barnyardgrass plant response rating: 0
[4]; 31 g ai/ha
  Plant response rating, Field Bindweed: 0
  Field Bindweed plant response rating: 0
[4]; 62 g ai/ha
  Plant response rating, Field Bindweed: 0
  Field Bindweed plant response rating: 0
[4]; 125 g ai/ha
  Plant response rating, Field Bindweed: 0
  Field Bindweed plant response rating: 0
[4]; 250 g ai/ha
  Plant response rating, Field Bindweed: 0
  Field Bindweed plant response rating: 0
[4]; 500 g ai/ha
  Plant response rating, Field Bindweed: 0
  Field Bindweed plant response rating: 0
[5]; 31 g ai/ha
  Plant response rating, Sandbur: 0
  Sandbur plant response rating: 0
[5]; 62 g ai/ha
  Plant response rating, Sandbur: 0
  Sandbur plant response rating: 0
[5]; 125 g ai/ha
  Plant response rating, Sandbur: 0
  Sandbur plant response rating: 0
[5]; 250 g ai/ha
  Plant response rating, Sandbur: 0
  Sandbur plant response rating: 20
[5]; 500 g ai/ha
  Plant response rating, Sandbur: 0
  Sandbur plant response rating: 20
[6]; 31 g ai/ha
  Plant response rating, Pigweed, Palmer: 50
  Pigweed, Palmer plant response rating: 0
[6]; 62 g ai/ha
  Plant response rating, Pigweed, Palmer: 25
  Pigweed, Palmer plant response rating: 20
[6]; 125 g ai/ha
  Plant response rating, Pigweed, Palmer: 75
  Pigweed, Palmer plant response rating: 25
[6]; 250 g ai/ha
  Plant response rating, Pigweed, Palmer: 70
  Pigweed, Palmer plant response rating: 20
[6]; 500 g ai/ha
  Plant response rating, Pigweed, Palmer: 98
  Pigweed, Palmer plant response rating: 100
[7]; 31 g ai/ha
  Plant response rating, Panicum, Fall: 0
  Panicum, Fall plant response rating: 0
[7]; 62 g ai/ha
  Plant response rating, Panicum, Fall: 0
  Panicum, Fall plant response rating: 0
[7]; 125 g ai/ha
  Plant response rating, Panicum, Fall: 0
  Panicum, Fall plant response rating: 0
[7]; 250 g ai/ha
  Plant response rating, Panicum, Fall: 0
  Panicum, Fall plant response rating: 0
[7]; 500 g ai/ha
  Plant response rating, Panicum, Fall: 0
  Panicum, Fall plant response rating: 0
Soybean (Glycine max); 31 g ai/ha
  Plant response rating, Soybean: 0
  Soybean plant response rating: 0
Soybean (Glycine max); 62 g ai/ha
  Plant response rating, Soybean: 0
  Soybean plant response rating: 0
Soybean (Glycine max); 125 g ai/ha
  Plant response rating, Soybean: 0
  Soybean plant response rating: 0
Soybean (Glycine max); 250 g ai/ha
  Plant response rating, Soybean: 0
  Soybean plant response rating: 0
Soybean (Glycine max); 500 g ai/ha
  Plant response rating, Soybean: 0
  Soybean plant response rating: 0
[8]; 31 g ai/ha
  Plant response rating, Waterhemp: 65
  Waterhemp plant response rating: 0
[8]; 62 g ai/ha
  Plant response rating, Waterhemp: 90
  Waterhemp plant response rating: 20
[8]; 125 g ai/ha
  Plant response rating, Waterhemp: 98
  Waterhemp plant response rating: 60
[8]; 250 g ai/ha
  Plant response rating, Waterhemp: 98
  Waterhemp plant response rating: 60
[8]; 500 g ai/ha
  Plant response rating, Waterhemp: 100
  Waterhemp plant response rating: 100
[9]; 31 g ai/ha
  Plant response rating, Beggarticks: 30
  Beggarticks plant response rating: 0
[9]; 62 g ai/ha
  Plant response rating, Beggarticks: 95
  Beggarticks plant response rating: 0
[9]; 125 g ai/ha
  Plant response rating, Beggarticks: 98
  Beggarticks plant response rating: 0
[9]; 250 g ai/ha
  Plant response rating, Beggarticks: 98
  Beggarticks plant response rating: 35
[9]; 500 g ai/ha
  Plant response rating, Beggarticks: 98
  Beggarticks plant response rating: 35
[10]; 31 g ai/ha, scale 0 to 100
  Plant response rating, Arrowleaf Sida: 80
  Arrowleaf Sida plant response rating: 20
[10]; 62 g ai/ha, scale 0 to 100
  Plant response rating, Arrowleaf Sida: 90
  Arrowleaf Sida plant response rating: 25
[10]; 125 g ai/ha, scale 0 to 100
  Plant response rating, Arrowleaf Sida: 95
  Arrowleaf Sida plant response rating: 25
[10]; 250 g ai/ha, scale 0 to 100
  Plant response rating, Arrowleaf Sida: 95
  Arrowleaf Sida plant response rating: 20
[10]; 500 g ai/ha, scale 0 to 100 (0 no effect, 100 complete control)
  Plant response rating, Arrowleaf Sida: 98
[10]; 500 g ai/ha, scale 0 to 100
  Arrowleaf Sida plant response rating: 75
